Assay results: the NIST ThermoML archive (doi:10.1021/je034142v)
“And” between values parts separate entries of the source, which are not always exact repeats. Equal entries are not always repeated. ± gives the expanded uncertainty stated by the source.

Details: Liquid; for mass density: vibrating tube

C1CCCC1 [cyclopentane]
Details | mass density [kg/m3] | viscosity
273.15 K, 325900 kPa | – | 3.56 ± 0.071 mPa·s
273.15 K, 350700 kPa | – | 3.947 ± 0.079 mPa·s
273.15 K, 379200 kPa | – | 4.44 ± 0.089 mPa·s
278.15 K, 101.33 kPa | 759.64 ± 0.07 | –
278.16 K, 100 kPa | – | 0.5288 ± 0.011 mPa·s and 0.529 ± 0.011 mPa·s
278.16 K, 2900 kPa | – | 0.543 ± 0.011 mPa·s
278.16 K, 5000 kPa | – | 0.5539 ± 0.011 mPa·s
278.16 K, 8100 kPa | – | 0.5697 ± 0.011 mPa·s
278.16 K, 10800 kPa | – | 0.5838 ± 0.012 mPa·s
278.16 K, 25900 kPa | – | 0.6618 ± 0.013 mPa·s
278.16 K, 50800 kPa | – | 0.7981 ± 0.016 mPa·s
278.16 K, 75800 kPa | – | 0.9456 ± 0.019 mPa·s
278.16 K, 100600 kPa | – | 1.105 ± 0.022 mPa·s
278.16 K, 125700 kPa | – | 1.28 ± 0.026 mPa·s
278.16 K, 150700 kPa | – | 1.469 ± 0.029 mPa·s
278.16 K, 175800 kPa | – | 1.675 ± 0.034 mPa·s
278.16 K, 200700 kPa | – | 1.895 ± 0.038 mPa·s
278.16 K, 225800 kPa | – | 2.137 ± 0.043 mPa·s
278.16 K, 250800 kPa | – | 2.395 ± 0.048 mPa·s
278.16 K, 275900 kPa | – | 2.679 ± 0.054 mPa·s
278.16 K, 300800 kPa | – | 2.992 ± 0.06 mPa·s
278.16 K, 325900 kPa | – | 3.323 ± 0.067 mPa·s
278.16 K, 350900 kPa | – | 3.683 ± 0.074 mPa·s
278.16 K, 380100 kPa | – | 4.144 ± 0.083 mPa·s
283.15 K, 101.33 kPa | 754.76 ± 0.07 | –
287.93 K, 100 kPa | – | 0.471 ± 0.0095 mPa·s and 0.4712 ± 0.0095 mPa·s
287.93 K, 3000 kPa | – | 0.4845 ± 0.0097 mPa·s
287.93 K, 5400 kPa | – | 0.4955 ± 0.01 mPa·s
287.93 K, 8100 kPa | – | 0.5084 ± 0.01 mPa·s
287.93 K, 10800 kPa | – | 0.5216 ± 0.01 mPa·s
287.93 K, 25900 kPa | – | 0.5923 ± 0.012 mPa·s
287.93 K, 50900 kPa | – | 0.7153 ± 0.014 mPa·s
287.93 K, 75800 kPa | – | 0.8468 ± 0.017 mPa·s
287.93 K, 100800 kPa | – | 0.9885 ± 0.02 mPa·s
287.93 K, 125700 kPa | – | 1.143 ± 0.023 mPa·s
287.93 K, 150600 kPa | – | 1.308 ± 0.026 mPa·s
287.93 K, 175700 kPa | – | 1.488 ± 0.03 mPa·s
287.93 K, 200600 kPa | – | 1.681 ± 0.034 mPa·s
287.93 K, 225700 kPa | – | 1.893 ± 0.038 mPa·s
287.93 K, 250700 kPa | – | 2.121 ± 0.043 mPa·s
287.93 K, 275700 kPa | – | 2.361 ± 0.047 mPa·s
287.93 K, 300800 kPa | – | 2.623 ± 0.053 mPa·s
287.93 K, 325500 kPa | – | 2.901 ± 0.058 mPa·s
287.93 K, 349500 kPa | – | 3.196 ± 0.064 mPa·s
287.93 K, 376900 kPa | – | 3.563 ± 0.071 mPa·s
288.15 K, 101.33 kPa | 749.85 ± 0.07 | –
293.15 K, 101.33 kPa | 744.9 ± 0.07 | –
298 K, 100 kPa | – | 0.4191 ± 0.0084 mPa·s and 0.4196 ± 0.0084 mPa·s
298 K, 3000 kPa | – | 0.4308 ± 0.0087 mPa·s
298 K, 5300 kPa | – | 0.4404 ± 0.0089 mPa·s
298 K, 8100 kPa | – | 0.4526 ± 0.0091 mPa·s
298 K, 10900 kPa | – | 0.4644 ± 0.0093 mPa·s
298 K, 26000 kPa | – | 0.5288 ± 0.011 mPa·s
298 K, 50800 kPa | – | 0.639 ± 0.013 mPa·s
298 K, 75800 kPa | – | 0.7572 ± 0.015 mPa·s
298 K, 100800 kPa | – | 0.8842 ± 0.018 mPa·s
298 K, 125800 kPa | – | 1.021 ± 0.021 mPa·s
298 K, 150700 kPa | – | 1.167 ± 0.023 mPa·s
298 K, 175700 kPa | – | 1.324 ± 0.026 mPa·s
298 K, 200700 kPa | – | 1.495 ± 0.03 mPa·s
298 K, 225700 kPa | – | 1.678 ± 0.034 mPa·s
298 K, 250700 kPa | – | 1.874 ± 0.037 mPa·s
298 K, 275700 kPa | – | 2.085 ± 0.042 mPa·s
298 K, 300600 kPa | – | 2.311 ± 0.046 mPa·s
298 K, 324900 kPa | – | 2.542 ± 0.051 mPa·s
298 K, 349600 kPa | – | 2.793 ± 0.056 mPa·s
298 K, 375700 kPa | – | 3.084 ± 0.062 mPa·s
298.03 K, 100 kPa | – | 0.419 ± 0.0084 mPa·s
298.03 K, 5500 kPa | – | 0.441 ± 0.0089 mPa·s
298.03 K, 7800 kPa | – | 0.4505 ± 0.0091 mPa·s
298.03 K, 10800 kPa | – | 0.4637 ± 0.0093 mPa·s
298.03 K, 25900 kPa | – | 0.5276 ± 0.011 mPa·s
298.03 K, 50900 kPa | – | 0.6379 ± 0.013 mPa·s
298.03 K, 75800 kPa | – | 0.7549 ± 0.015 mPa·s
298.03 K, 100800 kPa | – | 0.8807 ± 0.018 mPa·s
298.03 K, 125800 kPa | – | 1.016 ± 0.02 mPa·s
298.03 K, 150700 kPa | – | 1.163 ± 0.023 mPa·s
298.03 K, 175700 kPa | – | 1.322 ± 0.026 mPa·s
298.03 K, 200700 kPa | – | 1.491 ± 0.03 mPa·s
298.03 K, 225600 kPa | – | 1.673 ± 0.034 mPa·s
298.03 K, 250600 kPa | – | 1.871 ± 0.037 mPa·s
298.03 K, 275600 kPa | – | 2.081 ± 0.042 mPa·s
298.03 K, 300400 kPa | – | 2.305 ± 0.046 mPa·s
298.03 K, 325300 kPa | – | 2.545 ± 0.051 mPa·s
298.03 K, 350100 kPa | – | 2.8 ± 0.056 mPa·s
298.03 K, 378000 kPa | – | 3.112 ± 0.062 mPa·s
298.15 K, 101.33 kPa | 739.92 ± 0.07 | –

101.33 kPa, Capillary tube (Ostwald / Ubbelohde) method
Details | viscosity [mPa·s]
278.15 K | 0.523 ± 0.0036
283.15 K | 0.4932 ± 0.0035
288.15 K | 0.4657 ± 0.0033
293.15 K | 0.4405 ± 0.0032
298.15 K | 0.4173 ± 0.003
